Results as given in paper PMC7833600 (The Journal of Biological Chemistry, 2021).
Non-standard residues stand in square brackets, D forms with d. Residues, ends and D or L forms follow the SMILES beside them. No end group written: not given here. *: point of attachment. Dnp = O=[N+]([O-])c1ccc(*)c([N+](=O)[O-])c1; Sta = CC(C)C[C@H](N)[C@@H](O)CC(=O)O; Mca = COc1ccc2c(CC(=O)*)cc(=O)oc2c1; Isovaleryl = CC(C)CC(=O)*

Legend:
human ACE2 [1] = molecular target: T1, human ACE2 (Homo sapiens, UniProt Q9BYF1); assay type: biochemical
human ACE2 [2] = molecular target: T1, human ACE2; test: biochemical; conditions: IC50 for Competitive substrates, 1 h, 26 °C
human ACE2 [3] = molecular target: T1, human ACE2; assay type: biochemical; remark: listed apart in the source
ACE2 = conditions: cited from earlier work

T1 sequence (Q9BYF1 18-740 limits assumed): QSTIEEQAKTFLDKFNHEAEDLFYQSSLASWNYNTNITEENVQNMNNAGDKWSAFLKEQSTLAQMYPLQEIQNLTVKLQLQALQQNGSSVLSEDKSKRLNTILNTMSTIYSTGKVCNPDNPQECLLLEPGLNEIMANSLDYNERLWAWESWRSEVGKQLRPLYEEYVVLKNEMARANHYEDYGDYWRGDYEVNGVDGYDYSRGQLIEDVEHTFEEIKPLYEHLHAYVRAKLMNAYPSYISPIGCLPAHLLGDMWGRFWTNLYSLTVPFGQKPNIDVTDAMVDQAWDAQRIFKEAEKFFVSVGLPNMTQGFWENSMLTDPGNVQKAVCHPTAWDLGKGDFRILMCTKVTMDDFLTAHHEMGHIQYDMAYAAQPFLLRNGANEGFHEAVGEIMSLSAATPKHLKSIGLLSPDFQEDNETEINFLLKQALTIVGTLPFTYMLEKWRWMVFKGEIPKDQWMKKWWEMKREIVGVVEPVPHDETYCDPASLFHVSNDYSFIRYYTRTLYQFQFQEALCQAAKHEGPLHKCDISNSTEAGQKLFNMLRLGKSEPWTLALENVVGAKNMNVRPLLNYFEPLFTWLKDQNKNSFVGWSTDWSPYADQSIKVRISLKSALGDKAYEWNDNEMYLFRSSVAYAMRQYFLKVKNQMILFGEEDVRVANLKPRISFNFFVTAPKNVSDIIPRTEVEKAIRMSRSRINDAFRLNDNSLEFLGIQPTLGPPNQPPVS

In the case of `NCCc1ccc(S(=O)(=O)F)cc1` [AEBSF], the “effect on ACE2 activity” value (human ACE2 [1]) is reported as “no effects”.
For `CC(C)C[C@H](N[C@@H](Cc1cncn1Cc1cc(Cl)cc(Cl)c1)C(=O)O)C(=O)O` [MLN-4760], the “effect on ACE2 activity” value (human ACE2 [1]) was “completely blocked” and the “effect on the spike / RBD mediated enhancement of ACE2 cleavage” value (human ACE2 [1]) was “abolished”.
For `N=C(N)NCCC[C@H](N)C(=O)N1CCC[C@H]1C(=O)N1CCC[C@H]1C(=O)NCC(=O)N[C@@H](Cc1ccccc1)C(=O)N[C@@H](CO)C(=O)N1CCC[C@H]1C(=O)N[C@@H](Cc1ccccc1)C(=O)O` [desBK, des-Arg^9-bradykinin], the IC50 (human ACE2 [2]) was 1430 ± 655 µM.
With `CC(=O)N[C@@H](CC(C)C)C(=O)N[C@@H](CC(C)C)C(=O)N[C@H](C=O)CCCNC(=N)N` [leupeptin] the “effect on ACE2 activity” value (human ACE2 [1]) was “no effects”.
With `CC(C)CC(=O)N[C@H](C(=O)N[C@H](C(=O)N[C@@H](CC(C)C)[C@@H](O)CC(=O)N[C@@H](C)C(=O)N[C@@H](CC(C)C)[C@@H](O)CC(=O)O)C(C)C)C(C)C` [pepstatin A] (Isovaleryl-VV[Sta]A[Sta]-OH) the “effect on ACE2 activity” value (human ACE2 [1]) was “no effects”.
In the case of Mca-RPPGFSAFK(Dnp)-OH, the “amount of substrate cleaved by ACE2” value (human ACE2 [3]) is reported as roughly 0.05 µM.
In the case of Mca-YVADAPK(Dnp)-OH, the “amount of substrate cleaved by ACE2” value (human ACE2 [3]) is reported as roughly 0.5 µM.
For QRPRLSHKGPMP↓F [Apelin-13], the “k cat/Km of ACE2 cleavage” value (ACE2) is given as greater than 1e+06 M⁻¹ s⁻¹.
Compound RPPGFSPFR [BK, bradykinin] has an IC50 (human ACE2 [2]) of 680 ± 87 µM.
In the case of YGGFLRRIRPKL↓K [dynorphin A 1-13], the “k cat/Km of ACE2 cleavage” value (ACE2) is listed as greater than 1e+06 M⁻¹ s⁻¹.
